# Source: patent US10639284B2, “Immunomodulator compounds” (CHEMOCENTRYX, INC., priority 2016, dated 2020)
# Molecular target: human PD-L1 / Human PD-1 (Homo sapiens (Human), UniProt Q9NZQ7)
# Assay: Enzyme-Linked Immunosorbent Assay (ELISA), PD-1/PD-L1 binding
# Details: Table 2; plate-coated human PD-L1, biotinylated human PD-1; read-out: ELISA IC50
# Outline: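 Human PD-L1 coated at 1 μg/mL overnight at 4° C; samples diluted 1:5 and incubated with human PD-1 and biotin (0.3 μg/mL) for 1 h at 37° C. Bound PD-1 detected with streptavidin-HRP and TMB (20 min, 37° C), acid-stopped, absorbance at 450 nm.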
# Sequence of human PD-L1 / Human PD-1 (Q9NZQ7 19-239): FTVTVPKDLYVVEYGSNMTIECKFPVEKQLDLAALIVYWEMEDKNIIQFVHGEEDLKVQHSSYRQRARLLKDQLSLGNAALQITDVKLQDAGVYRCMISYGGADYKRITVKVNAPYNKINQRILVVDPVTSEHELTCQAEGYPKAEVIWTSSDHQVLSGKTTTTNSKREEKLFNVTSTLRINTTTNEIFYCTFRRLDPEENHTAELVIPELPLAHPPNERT
row,SMILES,IC50
1,CCOc1cc(O[C@H]2CCc3c(-c4ccccc4F)cccc32)c(Cl)cc1CNC(CO)(CO)CO [Example 2.164],< 100 nM
2,O=C(O)[C@H](CO)NCc1cc(Cl)c(O[C@H]2CCc3c(-c4ccccc4F)cccc32)cc1OCC1CC1 [Example 2.038],100 to 500 nM
3,Cc1cc(-c2cccc3c2CC[C@@H]3Oc2cc(OCc3cncc(C#N)c3)c(CN[C@@H](CO)C(=O)O)cc2Cl)ccc1N(C)C [Example 2.026],500 to 20000 nM
4,C[C@@H](NCc1cc(Cl)c(O[C@H]2CCc3c(-c4ccccc4F)cccc32)cc1OCc1cncc(C#N)c1)C(=O)O [Example 2.141],< 100 nM
5,C[C@H](NCc1cc(Cl)c(O[C@H]2CCc3c(-c4ccccc4F)cccc32)cc1OCc1cncc(C#N)c1)C(=O)O [Example 2.098],< 100 nM
6,COc1ccccc1-c1cccc2c1CC[C@@H]2Oc1cc(OCc2cncc(C#N)c2)c(CN[C@@H](CO)C(=O)O)cc1Cl [Example 2.009],500 to 20000 nM
7,COc1cccc(-c2cccc3c2CC[C@@H]3Oc2cc(OCc3cncc(C#N)c3)c(CNCc3ccc(B(O)O)cc3)cc2Cl)c1F [Example 2.066],500 to 20000 nM
8,N#Cc1cncc(COc2cc(O[C@H]3CCc4c(-c5ccccc5F)cccc43)c(Cl)cc2CNCc2cnn[nH]2)c1 [Example 2.025],100 to 500 nM
9,N#Cc1cncc(COc2cc(O[C@H]3CCc4c(-c5ccccc5F)cccc43)c(Cl)cc2CN2CC[C@H](O)[C@H](F)C2)c1 [Example 2.113],500 to 20000 nM
10,COc1cccc(-c2cccc3c2CC[C@@H]3Oc2cc(OCc3cncc(C#N)c3)c(CN3CCC(O)CC3)cc2Cl)c1F [Example 2.052],100 to 500 nM
11,N#Cc1cncc(COc2cc(O[C@H]3CCc4c(-c5ccccc5F)cccc43)c(Cl)cc2CN[C@H](C(=O)O)[C@H](O)c2ccccc2)c1 [Example 2.132],100 to 500 nM
12,COc1cccc(-c2cccc3c2CC[C@@H]3Oc2cc(OCc3cncc(C#N)c3)c(CN3CCC[C@@H](O)C3)cc2Cl)c1F [Example 2.055],100 to 500 nM
13,N#Cc1cncc(COc2cc(O[C@H]3CCc4c(-c5ccccc5)cccc43)c(Cl)cc2CN2CC(C(=O)O)C2)c1 [Example 2.003],< 100 nM
14,CCCOc1cc(O[C@H]2CCc3c(-c4ccccc4F)cccc32)c(Cl)cc1CN[C@@H](CO)C(=O)O [Example 2.074],100 to 500 nM
15,CCOC(=O)[C@H](CO)NCc1cc(Cl)c(O[C@H]2CCc3c(-c4ccccc4F)cccc32)cc1OCc1cncc(C#N)c1 [Example 2.162],500 to 20000 nM
16,N#Cc1cncc(COc2cc(O[C@@H]3CCc4c(-c5ccccc5F)cccc43)c(Cl)cc2CN2CCC(O)CC2)c1 [Example 2.136],100 to 500 nM
17,N#Cc1cncc(COc2cc(O[C@H]3CCc4c(-c5ccccc5)cccc43)c(Cl)cc2CNC[C@@H](O)CC(=O)O)c1 [Example 1.009],< 100 nM
18,COc1cccc(-c2cccc3c2CC[C@@H]3Oc2cc(OCc3cncc(C#N)c3)c(CN3CCC(O)CC3)cc2Cl)c1Cl [Example 2.071],100 to 500 nM
19,COc1cccc(-c2cccc3c2CC[C@@H]3Oc2cc(OCc3cncc(C#N)c3)c(CN3CC(O)C(C(=O)O)C3)cc2Cl)c1F (some centres unmarked) [Example 2.064],< 100 nM
20,COC(=O)[C@H](CO)NCc1cc(Cl)c(O[C@H]2CCc3c(-c4ccccc4F)cccc32)cc1OCc1cncc(C#N)c1 [Example 2.140],< 100 nM
21,C[C@@H](O)[C@H](NCc1cc(Cl)c(O[C@H]2CCc3c(-c4ccccc4F)cccc32)cc1OCc1cncc(C#N)c1)C(=O)O [Example 2.100],< 100 nM
22,N#Cc1cncc(COc2cc(O[C@H]3CCc4c(-c5ccccc5F)cccc43)c(Cl)cc2CNC2(C(=O)O)CCC2)c1 [Example 2.145],< 100 nM
23,N#Cc1cncc(COc2cc(O[C@H]3CCc4c(-c5ccccc5F)cccc43)c(Cl)cc2CN2CCCC(O)C2)c1 (some centres unmarked) [Example 2.030],100 to 500 nM

# Same assay, conditions: Table 3; plate-coated human PD-L1, biotinylated human PD-1; read-out: ELISA IC50
row,SMILES,IC50
1,N#Cc1cncc(COc2cc(O[C@H]3CCc4c(C5=CCCCC5)cccc43)c(Cl)cc2CN[C@@H](CO)C(=O)O)c1 [Example 3.117],< 100 nM
2,CC(NCc1cc(Cl)c(O[C@H]2CCc3c(-c4ccccc4F)cccc32)cc1OCc1cncc(C#N)c1)c1ccn(C)n1 (some centres unmarked) [Example 3.066],100 to 500 nM
3,CCOc1cc(NC2CCc3c(-c4ccccc4F)cccc32)c(Cl)cc1CN[C@@H](CO)C(=O)O (some centres unmarked) [Example 3.133],100 to 500 nM
4,C[C@@](CO)(NCc1cc(Cl)c(O[C@H]2CCc3c(-c4ccc5c(c4F)OCCO5)cccc32)cc1OCc1cc(C#N)cc(C#N)c1)C(=O)O [Example 3.005],< 100 nM
5,N#Cc1cncc(COc2cc(O[C@H]3CCc4c(-c5ccc6c(c5F)OCCO6)cccc43)c(Cl)cc2CN[C@@H](CCO)C(=O)O)c1 [Example 3.034],< 100 nM
6,N#Cc1cc(C#N)cc(COc2cc(O[C@H]3CCc4c(-c5ccc6c(c5F)OCCO6)cccc43)c(Cl)cc2CN[C@@H](CO)C(=O)O)c1 [Example 3.006],< 100 nM
7,N#Cc1cncc(COc2cc(O[C@H]3CCc4c(-c5ccccc5F)cccc43)c(Cl)cc2CN[C@@H]2CCCC[C@H]2O)c1 [Example 3.071],< 100 nM
8,O=C(O)[C@H](CO)NCc1cc(Cl)c(O[C@H]2CCc3c(-c4ccccc4F)cccc32)cc1OCc1cncc(-c2nn[nH]n2)c1 [Example 3.108],100 to 500 nM
9,N#Cc1cncc(COc2cc(O[C@H]3CCc4c(-c5ccccc5F)cccc43)c(Cl)cc2CNC(Cc2cccnc2)C(=O)O)c1 (some centres unmarked) [Example 3.094],< 100 nM
10,N#Cc1cncc(COc2cc(O[C@H]3CCc4c(-c5ccccc5F)cccc43)c(Cl)cc2CN2CC(O)C2)c1 [Example 3.114],500 to 20000 nM
11,N#Cc1cncc(COc2cc(O[C@H]3CCc4c(-c5ccccc5F)cccc43)c(Cl)cc2CNCCO)c1 [Example 3.128],< 100 nM
12,CN(C)CCCCCNCc1cc(Cl)c(O[C@H]2CCc3c(-c4ccccc4F)cccc32)cc1OCc1cncc(C#N)c1 [Example 3.080],< 100 nM
13,N#Cc1cncc(COc2cc(O[C@H]3CCc4c(-c5ccccc5F)cccc43)c(Cl)cc2CN[C@@H](CO)C(=O)N[C@@H](CO)C(=O)N[C@@H](CO)C(=O)O)c1 [Example 3.048],< 100 nM
14,N#Cc1cncc(COc2cc(O[C@H]3CCc4c(-c5ccccc5F)cccc43)c(Cl)cc2CNCCN2CCCCC2CO)c1 (some centres unmarked) [Example 3.077],100 to 500 nM
15,N#Cc1cncc(COc2cc(O[C@H]3CCc4c(-c5ccc6c(c5F)OCCO6)cccc43)c(Cl)cc2CN[C@H]2CCCC[C@@H]2C(=O)O)c1 [Example 3.036],100 to 500 nM
16,Cn1nccc1-c1cncc(COc2cc(O[C@H]3CCc4c(-c5ccccc5F)cccc43)c(Cl)cc2CN[C@@H](CO)C(=O)O)c1 [Example 3.106],100 to 500 nM
17,N#Cc1cncc(COc2cc(O[C@H]3CCc4c(-c5ccccc5F)cccc43)c(Cl)cc2CN[C@H](CC(N)=O)C(=O)O)c1 [Example 3.104],< 100 nM
18,C[C@H](NC(=O)[C@H](CO)NCc1cc(Cl)c(O[C@H]2CCc3c(-c4ccccc4F)cccc32)cc1OCc1cncc(C#N)c1)C(=O)O [Example 3.049],< 100 nM
19,N#Cc1cncc(COc2cc(O[C@H]3CCc4c(-c5ccccc5F)cccc43)c(Cl)cc2CNCC(=O)N[C@@H](CO)C(=O)O)c1 [Example 3.050],100 to 500 nM
20,N#Cc1cncc(COc2cc(O[C@H]3CCc4c(-c5ccccc5F)cccc43)c(Cl)cc2CN[C@@H](Cc2c[nH]cn2)C(=O)NCC(=O)NCC(=O)O)c1 [Example 3.056],500 to 20000 nM
21,Cc1cncc(COc2cc(O[C@H]3CCc4c(-c5ccc6c(c5F)OCCO6)cccc43)c(Cl)cc2CN[C@@H](CO)C(=O)O)c1 [Example 3.025],< 100 nM
